Biological target: T1, Plk-1 (Homo sapiens, UniProt P53350)
T1 construct: purchased Cyclex
Assay: ELISA-based Polo-like Kinase-1 activity assay (Cyclex)
Type: biochemical
Settings: compound at 10 uM, 10 mU purified Plk-1, 50 uM ATP, 30 minutes at 30° C.
Procedure: An ELISA-based Polo-like Kinase-1 activity assay (Cyclex, Nagano Japan) was used to confirm the Plk-1 inhibitory activity of the illustrative compound of the invention having the structure shown below. [drawing 39]
Briefly, 10 mU of purified Plk-1 (Cyclex) was incubated with the compound of interest in triplicate wells of a substrate-coated 96-well plate, along with 50 uM ATP and kinase buffer, for 30 minutes at 30° C. Wells were washed and probed with the anti-phospho-threonine antibody, incubated for 30 minutes at room temperature, then washed and probed again with an HRP-Anti Rabbit IgG. HRP substrate was added and the extent of phosphorylation was measured using a dual-wavelength spectrophotometer. At a concentration of 10 uM, compound (IB-10) inhibited Plk-1 activity in this assay by greater than 60%.
An ELISA-based Polo-like Kinase-1 activity assay (Cyclex, Nagano Japan) was used to confirm the Plk-1 inhibitory activity of the illustrative compound of the invention having the structure shown below (Compound 18, Table 1). [drawing 40]
Briefly, 10 mU of purified Plk-1 (Cyclex) was incubated with the compound in triplicate wells of a substrate-coated 96-well plate, along with 50 uM ATP and kinase buffer, for 30 minutes at 30° C. […] HRP substrate was added and the extent of phosphorylation was measured using a dual-wavelength spectrophotometer.

T1 sequence (P53350 whole entry): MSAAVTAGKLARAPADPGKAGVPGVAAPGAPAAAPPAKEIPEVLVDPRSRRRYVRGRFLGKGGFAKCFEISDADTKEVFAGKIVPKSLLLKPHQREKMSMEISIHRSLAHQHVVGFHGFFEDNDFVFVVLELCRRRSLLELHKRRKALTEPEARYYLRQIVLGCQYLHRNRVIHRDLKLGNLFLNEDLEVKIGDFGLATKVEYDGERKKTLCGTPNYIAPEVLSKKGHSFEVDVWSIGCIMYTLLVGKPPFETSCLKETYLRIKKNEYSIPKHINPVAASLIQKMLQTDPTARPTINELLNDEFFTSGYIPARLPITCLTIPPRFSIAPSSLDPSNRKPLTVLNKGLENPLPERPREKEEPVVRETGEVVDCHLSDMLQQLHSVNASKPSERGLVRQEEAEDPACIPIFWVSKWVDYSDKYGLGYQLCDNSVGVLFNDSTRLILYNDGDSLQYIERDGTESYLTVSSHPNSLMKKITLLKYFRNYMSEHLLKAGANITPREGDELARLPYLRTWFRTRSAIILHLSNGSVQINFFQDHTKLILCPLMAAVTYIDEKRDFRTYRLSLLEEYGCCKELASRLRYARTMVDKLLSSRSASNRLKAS

Row | Plk-1 activity reduced to % of untreated controls (remaining activity) [%] | inhibition at 10 µM (read-out: inhibited Plk-1 activity) [%] | Compound
1 | 88 |  | COc1cc2nncc(Nc3ccc(S(=O)(=O)NC(C)=O)cc3)c2cc1OC [Compound 18, N-Acetyl-4-(6,7-dimethoxy-cinnolin-4-ylamino)-benzenesulfonamide]
2 |  | > 60 | NC(=O)c1nnc2cc(Cl)c(F)cc2c1/N=C/c1ccc([N+](=O)[O-])cc1 [IB-10, (E)-4-(4-nitrobenzylideneamino)-7-chloro-6-fluorocinnoline-3-carboxamide]
